Measured values taken from US4260682A, “High sensitivity assays for angiotensin converting enzyme” (priority 1979, dated 1981).
Peptide text beside a SMILES is read from it. * marks the point of attachment. Bz = O=C(c1ccccc1)*

How the values were obtained:
Guinea pig urinary ACE = target: T1, Guinea pig urinary ACE (Cavia porcellus, UniProt H0UWL7); test: Sulfate and chloride effects on ACE catalysed substrate hydrolysis; format: biochemical; settings: 0.05 Hepes, pH 8.0, 0.15M HCl
T1 sequence (H0UWL7 33-1302): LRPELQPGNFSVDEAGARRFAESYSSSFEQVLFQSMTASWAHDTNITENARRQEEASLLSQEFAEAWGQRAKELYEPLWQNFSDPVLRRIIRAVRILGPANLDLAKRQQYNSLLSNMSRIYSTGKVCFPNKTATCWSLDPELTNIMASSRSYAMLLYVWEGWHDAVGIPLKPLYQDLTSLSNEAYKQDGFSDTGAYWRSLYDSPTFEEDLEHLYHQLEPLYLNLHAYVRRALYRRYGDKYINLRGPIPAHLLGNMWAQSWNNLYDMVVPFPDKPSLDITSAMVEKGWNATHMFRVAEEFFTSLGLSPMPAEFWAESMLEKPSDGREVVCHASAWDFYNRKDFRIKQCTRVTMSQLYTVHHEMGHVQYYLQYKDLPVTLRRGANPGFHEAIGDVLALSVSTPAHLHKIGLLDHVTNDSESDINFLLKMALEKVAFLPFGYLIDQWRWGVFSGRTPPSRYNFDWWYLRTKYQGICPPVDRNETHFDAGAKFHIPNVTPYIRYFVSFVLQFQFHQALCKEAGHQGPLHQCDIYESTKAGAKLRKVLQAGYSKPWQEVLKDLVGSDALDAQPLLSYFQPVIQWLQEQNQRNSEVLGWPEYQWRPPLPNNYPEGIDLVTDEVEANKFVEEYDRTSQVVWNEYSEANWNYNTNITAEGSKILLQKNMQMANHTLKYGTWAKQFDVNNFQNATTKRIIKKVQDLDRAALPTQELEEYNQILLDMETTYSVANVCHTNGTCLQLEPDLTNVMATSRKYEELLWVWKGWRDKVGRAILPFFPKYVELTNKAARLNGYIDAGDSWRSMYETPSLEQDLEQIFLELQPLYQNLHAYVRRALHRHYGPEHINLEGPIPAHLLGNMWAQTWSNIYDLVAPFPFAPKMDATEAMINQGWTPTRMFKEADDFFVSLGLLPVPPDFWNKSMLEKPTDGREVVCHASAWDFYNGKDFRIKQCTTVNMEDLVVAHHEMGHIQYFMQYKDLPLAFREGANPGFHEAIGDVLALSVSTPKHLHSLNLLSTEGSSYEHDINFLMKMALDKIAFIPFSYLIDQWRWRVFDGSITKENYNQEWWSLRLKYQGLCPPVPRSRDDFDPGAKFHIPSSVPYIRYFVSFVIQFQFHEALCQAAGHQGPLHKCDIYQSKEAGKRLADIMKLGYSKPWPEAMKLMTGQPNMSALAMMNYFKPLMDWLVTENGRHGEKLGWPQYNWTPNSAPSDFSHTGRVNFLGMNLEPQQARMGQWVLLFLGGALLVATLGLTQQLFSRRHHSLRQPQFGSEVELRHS

ACE [1] = target: ACE (Homo sapiens, UniProt P12821); test: Comparison of sensitivity of ACE radioassays; format: biochemical
Text: A comparison of the sensitivity of the disclosed assay methods with each other and with prior art assays may be made by considering assays which depend upon measuring the radioactivity of the remnant reaction product. A prior art assay of this type, using ^3 H-HipGlyGly as substrate has been described (Ryan and Chung, supra). Of the two assays disclosed herein, the sulfate stimulated hydrolysis of ^3 H-HipHisLeu is approximately 20 times more sensitive, and the ^3 H-benzoylPheAlaPro assay is about 10 times more sensitive still. The latter is therefore approximately 200 times more sensitive than the assay using ^3 H-HipGlyGly.

ACE [2] = test: pH dependence of ACE activity; format: biochemical
Text: (§1) The enzyme is active over a broad pH range with a maximum around pH 8.0, but is at least about 50% active in the range pH 7.0-pH 8.8, for both HipHisLeu and benzoylPheAlaPro. Although the enzyme is active in a variety of buffer systems known in the art, it is preferred for convenience, when using benzoylPheAlaPro as substrate, to conduct the assays in 0.05 M Hepes buffer, pH 8.0 containing 0.15 M sodium chloride. Detailed protocols for carrying out the assay are given in the examples. […] The preferred concentration range is 1×10^-9 M to 7×10^- 5 M.

Guinea pig serum ACE [3] = target: T2, Guinea pig serum ACE (Cavia porcellus, UniProt H0UWL7); test: Kinetics of benzoyl-Phe-Ala-Pro hydrolysis; settings: for V (reaction velocity): 0.05 M Hepes, pH 8.0, 0.15 M NaCl, 37° C., serum 1:1000
T2 sequence (H0UWL7 33-1234): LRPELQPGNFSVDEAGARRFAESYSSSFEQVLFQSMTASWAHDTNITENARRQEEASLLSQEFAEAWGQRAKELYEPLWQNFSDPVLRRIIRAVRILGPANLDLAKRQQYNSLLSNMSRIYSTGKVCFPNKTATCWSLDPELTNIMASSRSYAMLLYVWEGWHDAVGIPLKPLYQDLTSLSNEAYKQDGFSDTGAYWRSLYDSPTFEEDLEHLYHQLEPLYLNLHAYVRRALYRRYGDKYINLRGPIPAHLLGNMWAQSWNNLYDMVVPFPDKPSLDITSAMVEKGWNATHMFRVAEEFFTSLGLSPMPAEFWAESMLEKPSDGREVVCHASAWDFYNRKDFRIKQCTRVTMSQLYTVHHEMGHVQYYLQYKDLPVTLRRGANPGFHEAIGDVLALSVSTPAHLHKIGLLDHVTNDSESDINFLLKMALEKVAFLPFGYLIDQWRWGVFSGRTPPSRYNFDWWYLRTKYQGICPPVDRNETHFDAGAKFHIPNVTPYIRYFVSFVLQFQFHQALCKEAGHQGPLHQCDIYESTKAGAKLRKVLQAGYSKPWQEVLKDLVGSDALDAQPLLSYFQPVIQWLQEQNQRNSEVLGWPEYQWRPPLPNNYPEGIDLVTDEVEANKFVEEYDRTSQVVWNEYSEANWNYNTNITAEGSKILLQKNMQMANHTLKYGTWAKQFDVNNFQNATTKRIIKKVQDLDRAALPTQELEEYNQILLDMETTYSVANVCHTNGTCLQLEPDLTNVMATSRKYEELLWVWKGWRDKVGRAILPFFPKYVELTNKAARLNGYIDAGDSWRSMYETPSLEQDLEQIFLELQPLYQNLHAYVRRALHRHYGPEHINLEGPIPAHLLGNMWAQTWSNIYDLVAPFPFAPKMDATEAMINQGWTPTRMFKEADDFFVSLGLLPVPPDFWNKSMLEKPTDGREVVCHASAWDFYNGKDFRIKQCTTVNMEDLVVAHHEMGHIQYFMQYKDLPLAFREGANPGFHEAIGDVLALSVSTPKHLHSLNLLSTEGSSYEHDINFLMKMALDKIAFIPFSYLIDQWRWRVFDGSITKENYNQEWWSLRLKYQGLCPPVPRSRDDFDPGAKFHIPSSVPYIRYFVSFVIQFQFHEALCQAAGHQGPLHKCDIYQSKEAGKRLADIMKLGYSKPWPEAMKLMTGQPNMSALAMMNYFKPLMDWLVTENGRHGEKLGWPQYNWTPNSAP
Protocol: Kinetics of Benzoyl-Phe-Ala-Pro Hydrolysis
The apparent Km for the ACE catalyzed hydrolysis of benzoyl-Phe-Ala-Pro was measured in the following manner. […] Guinea pig serum was diluted 1:1000 to provide the enzyme. A mixture of 50 μl diluted serum and 50 μl of substrate, diluted in the reaction buffer to provide the appropriate substrate concentration for each experiment, was incubated at 37° C. for 10 minutes. At the end of the incubation, 1.0 ml of 0.1 M HCl was added to stop the reaction. The reaction mixture was then extracted with 1.0 ml toluene, and a 0.5 ml aliquot of the toluene phase was counted in a scintillation counter.

ACE [4] = test: Sulfate and chloride effects on ACE catalysed hydrolysis (general description); format: biochemical
Text: An assay for ACE, using HipHisLeu as substrate, is herewith described. The assay is more sensitive than any heretofore disclosed using HipHisLeu as substrate. Maximum sensitivity is achieved by the inclusion of sulfate ions, preferably as sodium sulfate, in the reaction mixture. When 0.1 M NaCl is present in the reaction mixture, sulfate ions are stimulatory from 0.1 M to at least 1.1 M. Maximum stimulation occurs in the range from 0.75 M to 1.1 M Na2 SO4.
(§2) An even more sensitive assay for ACE activity has been developed using the novel compound ^3 H-benzoylPheAlaPro as substrate. This new substrate can be used to assay ACE in human urine in incubations as short as 15 minutes. The response of this substrate to ions is strikingly different from the response of HipHisLeu. […] This difficulty has been solved by the proper choice of extracting solvent. While a variety of organic solvents may be suitable for the extraction step, it is preferred to employ toluene. Approximately 88% of ^3 H-benzoylPhe enters the toluene phase while only 6% of the unhydrolyzed substrate enters the toluene phase, when toluene and the acidified reaction mixture are in approximately equal volumes at room temperatures.
as §1

[5] = system: enzyme isolated from hog lung (ACE); settings: cited from earlier work
[6] = Extraction from the acidified reaction mixture into organic solvent; format: physicochemical; settings: toluene and acidified reaction mixture in approximately equal volumes, room temperature
Protocol: as §2

ACE from rabbit lung = settings: HipHisLeu as substrate; cited from earlier work
Guinea pig serum ACE [7] = target: T2, Guinea pig serum ACE; test: Kinetics of (sulfate-stimulated) HipHisLeu hydrolysis; format: biochemical; settings: 0.05 M Hepes, pH 8.0, 0.1 M NaCl, 0.75 M Na2 SO4; Lineweaver and Burke plot
Protocol: Kinetics of Sulfate-Stimulated HipHisLeu Hydrolysis
In each assay, 50 μl of Guinea pig serum diluted 1-20 (v/v) in the reaction buffer was mixed with 50 μl of buffer containing sufficient ^3 H-HipHisLeu to provide approximately 100,000 cpm total, together with sufficient unlabeled HipHisLeu to produce the desired substrate concentrations, as indicated in Table 2. […] The reaction mixture was then extracted with 1 ml ethyl acetate. 500 μl of the ethyl acetate fraction was sampled and counted in a scintillation counter.

[8] = sulfate ion 0.6 M, 0.1 M chloride, pH 8

Sequence of ACE (Homo sapiens, UniProt P12821) (P12821 30-1306, species assumed): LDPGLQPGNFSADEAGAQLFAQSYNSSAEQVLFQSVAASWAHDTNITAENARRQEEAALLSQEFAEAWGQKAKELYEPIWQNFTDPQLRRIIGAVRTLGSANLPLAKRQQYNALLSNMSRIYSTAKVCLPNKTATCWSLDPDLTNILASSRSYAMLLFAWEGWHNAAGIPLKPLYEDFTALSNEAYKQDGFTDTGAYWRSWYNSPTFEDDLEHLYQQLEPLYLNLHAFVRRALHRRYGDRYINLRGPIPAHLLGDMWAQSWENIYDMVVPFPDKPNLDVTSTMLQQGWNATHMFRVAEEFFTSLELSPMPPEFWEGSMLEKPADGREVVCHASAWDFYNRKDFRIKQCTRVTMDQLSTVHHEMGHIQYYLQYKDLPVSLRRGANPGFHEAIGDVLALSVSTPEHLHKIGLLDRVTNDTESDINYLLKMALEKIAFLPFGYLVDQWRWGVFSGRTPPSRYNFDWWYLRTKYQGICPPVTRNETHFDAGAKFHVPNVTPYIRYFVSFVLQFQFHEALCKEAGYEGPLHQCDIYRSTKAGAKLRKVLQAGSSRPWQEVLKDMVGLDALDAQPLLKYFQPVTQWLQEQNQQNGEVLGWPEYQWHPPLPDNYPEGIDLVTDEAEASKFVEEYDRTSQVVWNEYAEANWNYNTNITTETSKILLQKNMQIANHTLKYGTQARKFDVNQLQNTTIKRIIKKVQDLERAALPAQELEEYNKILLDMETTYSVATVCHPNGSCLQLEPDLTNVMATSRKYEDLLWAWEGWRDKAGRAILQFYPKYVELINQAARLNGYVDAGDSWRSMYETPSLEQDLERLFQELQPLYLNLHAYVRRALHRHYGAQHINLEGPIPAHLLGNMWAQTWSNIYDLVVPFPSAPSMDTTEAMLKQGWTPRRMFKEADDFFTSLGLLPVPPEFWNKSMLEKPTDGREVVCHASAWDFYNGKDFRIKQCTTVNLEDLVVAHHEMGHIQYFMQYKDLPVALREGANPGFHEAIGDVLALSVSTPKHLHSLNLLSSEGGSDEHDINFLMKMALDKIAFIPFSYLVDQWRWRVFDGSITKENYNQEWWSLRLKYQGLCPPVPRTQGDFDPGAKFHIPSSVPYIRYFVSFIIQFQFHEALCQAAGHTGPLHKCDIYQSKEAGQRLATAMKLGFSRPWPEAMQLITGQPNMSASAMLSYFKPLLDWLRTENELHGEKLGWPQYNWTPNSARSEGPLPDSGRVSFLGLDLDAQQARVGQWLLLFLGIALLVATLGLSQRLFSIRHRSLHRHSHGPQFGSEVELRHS

For C[C@H](NC(=O)[C@H](Cc1ccccc1)NC(=O)c1ccccc1)C(=O)N1CCC[C@H]1C(=O)O [benzoylPheAlaPro, benzoyl-Phe-Ala-Pro] (Bz-Phe-Ala-Pro-OH), the “Reaction Velocity, Per Cent of Substrate Hydrolyzed in 10 minutes” value (“Reaction Velocity, Per Cent” below) (Guinea pig urinary ACE; Na2 SO4 0 M) was 4.4 Per Cent, the “Reaction Velocity, Per Cent” value (Guinea pig urinary ACE; Na2 SO4 0.1 M) was 5.0 Per Cent and the “Reaction Velocity, Per Cent” value (Guinea pig urinary ACE; Na2 SO4 0.2 M) was 4.45 Per Cent. For the same molecule, the “Reaction Velocity, Per Cent” value (Guinea pig urinary ACE; Na2 SO4 0.3 M) was 4.85 Per Cent, the “Reaction Velocity, Per Cent” value (Guinea pig urinary ACE; Na2 SO4 0.5 M) was 5.6 Per Cent and the “sensitivity relative to the sulfate-stimulated HipHisLeu assay” value (ACE [1]) was “ten to twenty”. The “pH of maximum activity” value (ACE [2]) was roughly 8.0 pH, the “activity of enzyme (relative to maximum)” value (ACE [2]; range pH 7.0-pH 8.8) was “at least 50%” and the 1/V (Guinea pig serum ACE [3]; BenzPheAlaPro 1.0 μM) was 1.50 pmole^-1 · min .multi. For the same molecule, the V (reaction velocity) (Guinea pig serum ACE [3]; BenzPheAlaPro 1.0 μM) was 0.67 pmol/min/mL, the 1/V (Guinea pig serum ACE [3]; BenzPheAlaPro 5.0 μM) was 0.48 pmole^-1 · min .multi and the V (reaction velocity) (Guinea pig serum ACE [3]; BenzPheAlaPro 5.0 μM) was 2.08 pmol/min/mL. For the same molecule, the 1/V (Guinea pig serum ACE [3]; BenzPheAlaPro 10.0 μM) was 0.24 pmole^-1 · min .multi, the V (reaction velocity) (Guinea pig serum ACE [3]; BenzPheAlaPro 10.0 μM) was 4.17 pmol/min/mL and the 1/V (Guinea pig serum ACE [3]; BenzPheAlaPro 66.7 μM) was 0.11 pmole^-1 · min .multi. For the same molecule, the V (reaction velocity) (Guinea pig serum ACE [3]; BenzPheAlaPro 66.7 μM) was 9.09 pmol/min/mL and the “sensitivity of Km to the presence of sulfate” value (Guinea pig serum ACE [3]; sulfate present) was “relatively insensitive to the presence of sulfate”.

For O=C(O)CNC(=O)CNC(=O)CNC(=O)c1ccccc1 [HipGlyGly] (Bz-Gly-Gly-Gly-OH), the “dependence of hydrolysis on added chloride” value (ACE [4]; sulfate present) is listed as “remains dependent upon the presence of added chloride for activity”, the “hydrolysis in the absence of NaCl” value ([5]; Na2 SO4 0.001 M to 0.6 M) is listed as “no hydrolysis” and the “decrease of Km” value [5, 8] is listed as “about 15%”. The “increase of Vmax” value [5, 8] was “about 5 fold”.

For [3H]c1ccc(C(=O)N[C@@H](Cc2ccccc2)C(=O)O)cc1 [^3 H-benzoylPhe], the “fraction entering the toluene phase” value [6] was “Approximately 88%”.

In the case of O=S(=O)([O-])[O-].[Na+].[Na+] [Na2 SO4, sodium sulfate], the “reaction rate vs. buffer containing 0.1 M NaCl and lacking Na2 SO4” value (ACE [4]; 0.9 M to 1.2 M Na2 SO4, no added NaCl, 0.05 M Hepes, pH 8.0, HipHisLeu) is listed as “faster”, the “stimulation by sodium sulfate” value (ACE [4]; ^3 H-benzoylPheAlaPro as substrate) is listed as “not stimulatory” and the “ability to meet the chloride requirement” value (ACE from rabbit lung) is listed as “not”.

In the case of [Cl-].[Na+] [NaCl, sodium chloride], the “effect of NaCl on reaction velocity of ^3 H-benzoylPheAlaPro” value (ACE [4]; 0.01 M added NaCl) is reported as “increases reaction velocity”, the “increase of apparent reaction velocity of ^3 H-benzoylPheAlaPro” value (ACE [4]; 0.05 M added sodium chloride) is reported as “approximately 3 fold” and the “effect on ACE catalyzed hydrolysis of HipHisLeu” value (ACE [4]; NaCl 0.75 to 1.1 M) is reported as “seriously inhibits”. The “further increase of reaction velocity of ^3 H-benzoylPheAlaPro” value (ACE [4]; additional sodium chloride, up to 0.5 M) was “little further increase”.

In the case of [Cl-].[Cl-].[Mg+2] [MgCl2], the “ability to meet the chloride requirement” value (ACE from rabbit lung) is listed as “could be met”.

With ^3 H-HipHisLeu the Km (Guinea pig serum ACE [7]) was 177 µM and the “sensitivity relative to the assay using ^3 H-HipGlyGly” value (ACE [1]; radioactivity of remnant product, HipHisLeu assay sulfate stimulated) was “approximately 20 times”.
